Bridge positions count the residues as written; N and C are the ends. Ends that are not written are not given here. cellulose = not defined here; βAla = NCCC(=O)O
Legend:
Format in all cases: binding
Parameters in all cases: key: No binding of immunoglobulin for the defined peptide variant, detection negative: 0; Binding of immunoglobulin for the defined peptide variant, detection positive: +
serum albumin = experiment: Cellulose-immobilized 13-mer peptide variants incubated with serum albumin (negative control), anti-human IgG-AP detection; settings: blocking buffer without addition, 3 h room temperature
Procedure, shortened: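 Read-out was colorimetric NBT/BCIP staining (developing buffer pH 9.5) after alkaline phosphatase-conjugated anti-human IgG at 1.2 μg/ml. Before this, the immobilized peptides had been incubated 3 h at room temperature with 1 μg/ml IgG-Fc, 1:10,000 diluted serum, or albumin-containing blocking buffer without addition.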

[1] = system: immunoglobulins in human plasma; experiment: Cellulose-immobilized 13-mer peptide variants incubated with human plasma, anti-human IgG-AP detection; settings: human plasma as sample, diluted 1:10,000 in blocking buffer, 3 h room temperature
Procedure, shortened: (§1)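 Peptides on cellulose via a (βA)(βA) spacer were blocked in T-TBS (pH 8.0) with 5% saccharose and 4% BSA, then exposed for 3 h at room temperature to IgG-Fc (1 μg/ml), serum diluted 1:10,000, or blocking buffer alone. Bound IgG was detected with AP-anti-human IgG (1.2 μg/ml) and NBT/BCIP colour development.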

human IgG-Fc = experiment: Cellulose-immobilized 13-mer peptide variants incubated with human IgG-Fc, anti-human IgG-AP detection; settings: IgG-Fc 1 μg/ml in blocking buffer, 3 h room temperature
Procedure, shortened: as §1

Substance | Result for incubation with serum albumin (immunoglobulin binding detection) (serum albumin) | Result for incubation with human plasma (immunoglobulin binding detection) [1] | Result for incubation with human IgG-Fc (immunoglobulin binding detection) (human IgG-Fc)
10N: cellulose-bound 13-mer variant DCAWHLGELNWCT-(βA)(βA) (DCAWHLGELNWCT-{βAla-βAla-cellulose}; disulfide 2-12 (inferred); reading uncertain; also: printed as DCAWHLGELNWCT-(βA)(βA)) | 0 | 0 | 0
10P: cellulose-bound 13-mer variant DCAWHLGELPWCT-(βA)(βA) (DCAWHLGELPWCT-{βAla-βAla-cellulose}; disulfide 2-12 (inferred); reading uncertain; also: printed as DCAWHLGELPWCT-(βA)(βA)) | 0 | 0 | 0
10Q: cellulose-bound 13-mer variant DCAWHLGELQWCT-(βA)(βA) (DCAWHLGELQWCT-{βAla-βAla-cellulose}; disulfide 2-12 (inferred); reading uncertain; also: printed as DCAWHLGELQWCT-(βA)(βA)) | 0 | 0 | 0
10R: cellulose-bound 13-mer variant DCAWHLGELRWCT-(βA)(βA) (DCAWHLGELRWCT-{βAla-βAla-cellulose}; disulfide 2-12 (inferred); reading uncertain; also: printed as DCAWHLGELRWCT-(βA)(βA)) | 0 | 0 | 0
10S: cellulose-bound 13-mer variant DCAWHLGELSWCT-(βA)(βA) (DCAWHLGELSWCT-{βAla-βAla-cellulose}; disulfide 2-12 (inferred); reading uncertain; also: printed as DCAWHLGELSWCT-(βA)(βA)) | 0 | 0 | 0
10T: cellulose-bound 13-mer variant DCAWHLGELTWCT-(βA)(βA) (DCAWHLGELTWCT-{βAla-βAla-cellulose}; disulfide 2-12 (inferred); reading uncertain; also: printed as DCAWHLGELTWCT-(βA)(βA)) | 0 | 0 | 0
10W: cellulose-bound 13-mer variant DCAWHLGELWWCT-(βA)(βA) (DCAWHLGELWWCT-{βAla-βAla-cellulose}; disulfide 2-12 (inferred); reading uncertain; also: printed as DCAWHLGELWWCT-(βA)(βA)) | 0 | 0 | 0
10Y: cellulose-bound 13-mer variant DCAWHLGELYWCT-(βA)(βA) (DCAWHLGELYWCT-{βAla-βAla-cellulose}; disulfide 2-12 (inferred); reading uncertain; also: printed as DCAWHLGELYWCT-(βA)(βA)) | 0 | 0 | 0
11A: cellulose-bound 13-mer variant DCAWHLGELVACT-(βA)(βA) (DCAWHLGELVACT-{βAla-βAla-cellulose}; disulfide 2-12 (inferred); reading uncertain; also: printed as DCAWHLGELVACT-(βA)(βA)) | 0 | 0 | 0
11C: cellulose-bound 13-mer variant DCAWHLGELVCCT-(βA)(βA) (DCAWHLGELVCCT-{βAla-βAla-cellulose}; not fully specified (bridges); printed as DCAWHLGELVCCT-(βA)(βA); cysteine pairing not given here; reading uncertain) | 0 | 0 | 0
11D: cellulose-bound 13-mer variant DCAWHLGELVDCT-(βA)(βA) (DCAWHLGELVDCT-{βAla-βAla-cellulose}; disulfide 2-12 (inferred); reading uncertain; also: printed as DCAWHLGELVDCT-(βA)(βA)) | 0 | 0 | 0
11E: cellulose-bound 13-mer variant DCAWHLGELVECT-(βA)(βA) (DCAWHLGELVECT-{βAla-βAla-cellulose}; disulfide 2-12 (inferred); reading uncertain; also: printed as DCAWHLGELVECT-(βA)(βA)) | 0 | 0 | 0
11F: cellulose-bound 13-mer variant DCAWHLGELVFCT-(βA)(βA) (DCAWHLGELVFCT-{βAla-βAla-cellulose}; disulfide 2-12 (inferred); reading uncertain; also: printed as DCAWHLGELVFCT-(βA)(βA)) | 0 | 0 | 0
11G: cellulose-bound 13-mer variant DCAWHLGELVGCT-(βA)(βA) | 0 | 0 | 0
11H: cellulose-bound 13-mer variant DCAWHLGELVHCT-(βA)(βA) | 0 | 0 | +
11I: cellulose-bound 13-mer variant DCAWHLGELVICT-(βA)(βA) | 0 | 0 | 0
11K: cellulose-bound 13-mer variant DCAWHLGELVKCT-(βA)(βA) | 0 | 0 | +
11L: cellulose-bound 13-mer variant DCAWHLGELVLCT-(βA)(βA) | 0 | 0 | 0
11M: cellulose-bound 13-mer variant DCAWHLGELVMCT-(βA)(βA) | 0 | 0 | 0
11N: cellulose-bound 13-mer variant DCAWHLGELVNCT-(βA)(βA) | 0 | 0 | 0
11P: cellulose-bound 13-mer variant DCAWHLGELVPCT-(βA)(βA) | 0 | 0 | 0
11Q: cellulose-bound 13-mer variant DCAWHLGELVQCT-(βA)(βA) | 0 | 0 | 0
11R: cellulose-bound 13-mer variant DCAWHLGELVRCT-(βA)(βA) | 0 | 0 | 0
11S: cellulose-bound 13-mer variant DCAWHLGELVSCT-(βA)(βA) | 0 | 0 | 0
11T: cellulose-bound 13-mer variant DCAWHLGELVTCT-(βA)(βA) | 0 | 0 | 0
11V: cellulose-bound 13-mer variant DCAWHLGELVVCT-(βA)(βA) | 0 | 0 | 0
11Y: cellulose-bound 13-mer variant DCAWHLGELVYCT-(βA)(βA) | 0 | 0 | 0
